This is an account of results in patent US11858935B1, “Pyrrolo[2,3-c][1,7]naphthyridine-2-carboxylic acid compounds as CK2 inhibitors” (KING FAISAL UNIVERSITY, priority 2023, dated 2024).

The subject of one experiment is HL60 (leukemia). Nature of the experiment: In vitro cytotoxic activity (MTT) assay, HL60. It counts as cell-based. The conditions noted are these: Homo sapiens, HL-60; HL60 (leukemia) cells, exposed 96 hours; read-out: IC50, concentration eliciting 50% inhibition of cell proliferation. Here is the method:
(§1) Compounds 1-16 were screened for their in vitro cytotoxic activity utilizing a 3-(4,5-dimethyl-thiazol-2-yl)-2,5-diphenyltetrazolium bromide (MTT) assay against selected cancer human cell lines consisting of PC3 (prostate), HCT116 (colon), A375 (melanoma), H1299 (lung), MIAPaCa-2 (pancreas), HL60 (leukemia), MCF7 (breast), MDA-MB-231 (breast) (T. Mosmann, J. Immunol. Meth., 1983, 65, 55-63). The cells were cultured at 37° C. in RMPI1640 medium supplemented with 10% fetal bovine serum, 50 IU/mL penicillin, and 50 μg/mL streptomycin in a 5% CO2 incubator. All cells were sub-cultured 3 times/week by trypsinisation. Viable cells were seeded and allowed to adhere for 12 h before a test drug was added in 96-well plates at an initial density of 1.0×10^5 cells/mL. Tumor cell lines were separately exposed to various concentrations of the tested compounds followed by incubation at a temperature of 37° C. during 96 h inside a medium of fresh RMPI 1640. Cells were subsequently incubated at 37° C. using MTT at 0.5 mg/mL during 4 h. After removal of supernatant, formazan crystals were dissolved in isopropanol and the optical density was measured at 570 nm. CX-4945 was used as a positive control.

Another experiment deals with MDA-MB-231 (breast). Kind of experiment: In vitro cytotoxic activity (MTT) assay, MDA-MB-231. The settings on record: Homo sapiens; MDA-MB-231 (breast) cells, exposed 96 hours; read-out: IC50, concentration eliciting 50% inhibition of cell proliferation. It counts as cell-based. How it is done: as §1
The next experiment has as its system A375 (melanoma). Nature of the experiment: In vitro cytotoxic activity (MTT) assay, A375. The class given is cell-based. The conditions noted are these: Homo sapiens, A-375; A375 (melanoma) cells, exposed 96 hours; read-out: IC50, concentration eliciting 50% inhibition of cell proliferation. Here is the method: as §1
For the next experiment, the system named is PC3 (prostate). Kind of experiment: In vitro cytotoxic activity (MTT) assay, PC3. The settings on record: Homo sapiens, Prostate cell; PC3 (prostate) cells, exposed 96 hours; read-out: IC50, concentration eliciting 50% inhibition of cell proliferation. The class given is cell-based. Here is the method:
as §1

For another experiment, the system named is H1299 (lung). Nature of the experiment: In vitro cytotoxic activity (MTT) assay, H1299. The class given is cell-based. The conditions noted are these: Homo sapiens, NCI-H1299; H1299 (lung) cells, exposed 96 hours; read-out: IC50, concentration eliciting 50% inhibition of cell proliferation. Here is the method: as §1
In another experiment the test system is MCF7 (breast). Kind of experiment: In vitro cytotoxic activity (MTT) assay, MCF7. The class given is cell-based. The conditions noted are these: Homo sapiens; MCF7 (breast) cells, exposed 96 hours; read-out: IC50, concentration eliciting 50% inhibition of cell proliferation. How it is done: as §1
The subject of a further experiment is HCT116 (colon). Nature of the experiment: In vitro cytotoxic activity (MTT) assay, HCT116. The class given is cell-based. The settings on record: Homo sapiens, HCT-116; HCT116 (colon) cells, exposed 96 hours; read-out: IC50, concentration eliciting 50% inhibition of cell proliferation. How it is done:
as §1

The test system of a further experiment is MIAPaCa-2 (pancreas). Kind of experiment: In vitro cytotoxic activity (MTT) assay, MIAPaCa-2. It counts as cell-based. The conditions noted are these: Homo sapiens, MIA PaCa-2; MIAPaCa-2 (pancreas) cells, exposed 96 hours; read-out: IC50, concentration eliciting 50% inhibition of cell proliferation. How it is done: as §1
For experiment [1], the target named is T1, recombinant human CK2 (RRββ-holoenzyme) (Homo sapiens, UniProt P68400).
T1 construct: purchased Millipore
Nature of the experiment: CK2 Kinase Assay (33P-ATP, substrate peptide RRRDDDSDDD). It counts as biochemical. The settings on record: final ATP concentration 15 μM, 10 min at 30° C.; read-out: protein kinase CK2 IC50. Here is the method:
CK2 Kinase Assay was conducted using the protocol as described in Pierre F. et al; J. Med. Chem. 2011, 54, 635-654. The tested compounds in aqueous solution were added at a volume of 10 μL to a reaction mixture comprising 10 μL of assay dilution buffer (ADB; 20 mM MOPS, pH 7.2, 25 mM β-glycerol phosphate, 5 mM EGTA, 1 mM sodium orthovanadate, and 1 mM dithiothreitol), 10 μL of substrate peptide (RRRDDDSDDD, dissolved in ADB at a concentration of 1 mM), 10 μL of recombinant human CK2 (RRββ-holoenzyme, 25 ng dissolved in ADB; Millipore). Reactions were initiated by the addition of 10 μL of ATP solution (90% 75 mM MgCl2, 75 μM ATP (final ATP concentration:15 μM) dissolved in ADB; 10% [γ-33P] ATP (stock 1 mCi/100 μL; 3000 Ci/mmol (Perkin-Elmer) and maintained for 10 min at 30° C. The reactions were quenched with 100 μL of 0.75% phosphoric acid and then transferred to and filtered through a phosphor cellulose filter plate (Millipore). After washing each well five times with 0.75% phosphoric acid, the plate was dried under vacuum for 5 min and, following the addition of 15 μL of scintillation fluid to each well, the residual radioactivity was measured using a Wallac […]. The IC50 values were derived from eight concentrations of test inhibitors.

T1 sequence (P68400 whole entry): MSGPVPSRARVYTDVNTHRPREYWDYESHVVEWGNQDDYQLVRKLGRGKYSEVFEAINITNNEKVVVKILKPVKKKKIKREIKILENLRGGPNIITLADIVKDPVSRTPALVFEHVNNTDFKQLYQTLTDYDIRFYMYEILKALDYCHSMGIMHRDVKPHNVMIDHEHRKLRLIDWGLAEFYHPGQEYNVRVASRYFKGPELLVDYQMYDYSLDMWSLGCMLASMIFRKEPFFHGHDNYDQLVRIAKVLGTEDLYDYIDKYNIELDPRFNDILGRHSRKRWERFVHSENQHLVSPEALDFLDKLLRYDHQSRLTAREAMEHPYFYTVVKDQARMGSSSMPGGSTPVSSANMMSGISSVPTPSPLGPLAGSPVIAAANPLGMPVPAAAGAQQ
T1 sequence (P67870 whole entry partner): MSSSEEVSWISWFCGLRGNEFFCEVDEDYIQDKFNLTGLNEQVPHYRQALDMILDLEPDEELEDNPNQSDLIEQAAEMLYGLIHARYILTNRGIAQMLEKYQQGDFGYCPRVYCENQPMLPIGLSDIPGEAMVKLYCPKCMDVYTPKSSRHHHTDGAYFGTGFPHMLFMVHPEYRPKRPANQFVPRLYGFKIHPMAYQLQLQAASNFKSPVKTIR

`O=C(O)c1cc2c([nH]1)c(Nc1cccc(Cl)c1)nc1cnccc12` [Compound 1, 4-((3-chlorophenyl)amino)-3H-pyrrolo[2,3-c][1,7]naphthyridine-2-carboxylic acid]: the IC50 with HL60 (leukemia) was found to be 3100 nM; in the experiment on MDA-MB-231 (breast), 3600 nM; in the experiment with A375 (melanoma), 2300 nM; in the experiment with PC3 (prostate), 1500 nM; in the experiment on H1299 (lung), 1400 nM; in the experiment on MCF7 (breast), 4200 nM. Also, the IC50 with HCT116 (colon) worked out at 1800 nM; in the experiment with MIAPaCa-2 (pancreas), 1700 nM; in experiment [1], 26 nM.
